Test results taken from US9434711B2 (Janssen Pharmaceutica, NV, priority 2007, dated 2016).
Like-named read-outs stand apart in the source and are kept apart here.

Target: canine TRPM8 (Canis lupus familiaris, UniProt Q1A7N1)
Experiment: In Vitro Canine TRPM8 Functional Assay (Ca2+ fluorescence, icilin activation)
Format: cell-based
Settings: for inhibition at 0.2 µM: read-out: % Inh @ 0.2; for IC50: read-out: IC50; for inhibition at 0.5 µM: compound at 0.5 μM, read-out: % Inh @ 0.5
Summary of the method: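 Eight-point dose-response curves, each point averaging quadruplicate wells, gave EC50 or IC50. Canine TRPM8-expressing HEK293 cells, dye-loaded (Calcium 3), were pre-exposed 5 min to compound, then challenged with icilin at roughly EC80; intracellular Ca2+ read by FLIPR or FDSS fluorescence.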

[1] = compound at 0.2 μM, canine TRPM8, icilin activation
[2] = HEK293 cells stably expressing canine TRPM8, icilin activation, eight-point dose-response
[3] = 0.2 μM compound, HEK293 cells stably expressing canine TRPM8, icilin activation
[4] = canine TRPM8, icilin activation

Chain of canine TRPM8 (Q1A7N1 1-1104): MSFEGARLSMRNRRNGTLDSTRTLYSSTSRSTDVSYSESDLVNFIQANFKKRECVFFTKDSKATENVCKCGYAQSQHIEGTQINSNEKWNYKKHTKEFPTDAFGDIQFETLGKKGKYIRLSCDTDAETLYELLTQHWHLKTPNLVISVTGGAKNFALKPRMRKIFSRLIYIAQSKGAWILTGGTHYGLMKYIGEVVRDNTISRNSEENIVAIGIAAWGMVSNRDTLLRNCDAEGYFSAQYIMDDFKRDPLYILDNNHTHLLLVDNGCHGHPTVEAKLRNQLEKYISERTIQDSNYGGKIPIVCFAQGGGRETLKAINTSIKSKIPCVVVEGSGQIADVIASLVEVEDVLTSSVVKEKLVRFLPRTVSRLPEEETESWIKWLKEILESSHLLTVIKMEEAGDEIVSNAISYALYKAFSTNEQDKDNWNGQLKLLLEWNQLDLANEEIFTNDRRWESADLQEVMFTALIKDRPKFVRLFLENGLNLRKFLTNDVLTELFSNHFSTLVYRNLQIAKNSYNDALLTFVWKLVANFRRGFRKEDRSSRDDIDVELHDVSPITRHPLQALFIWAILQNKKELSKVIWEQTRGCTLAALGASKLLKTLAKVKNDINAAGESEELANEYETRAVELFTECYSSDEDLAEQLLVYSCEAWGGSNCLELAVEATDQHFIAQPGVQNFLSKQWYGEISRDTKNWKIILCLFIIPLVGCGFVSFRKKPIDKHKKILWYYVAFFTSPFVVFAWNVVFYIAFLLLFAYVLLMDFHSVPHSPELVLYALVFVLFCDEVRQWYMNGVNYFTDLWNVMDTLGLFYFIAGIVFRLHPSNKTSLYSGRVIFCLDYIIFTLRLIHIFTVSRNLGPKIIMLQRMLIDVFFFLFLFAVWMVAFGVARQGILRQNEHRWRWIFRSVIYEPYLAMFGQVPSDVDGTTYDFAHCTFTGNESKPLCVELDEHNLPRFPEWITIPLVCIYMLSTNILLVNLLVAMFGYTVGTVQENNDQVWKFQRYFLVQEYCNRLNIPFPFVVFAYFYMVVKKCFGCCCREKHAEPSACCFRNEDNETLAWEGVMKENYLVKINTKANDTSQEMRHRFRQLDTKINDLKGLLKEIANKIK

| inhibition at 0.2 µM [1] [%] | IC50 [2] [µM] | SMILES | also measured |
| --- | --- | --- | --- |
| 101 | – | COc1ccc(CN(c2sc3ccccc3c2C)S(=O)(=O)c2ccc(C(=O)O)cc2)cc1OC [Compound 525, N-(3-Methyl-benzo[b]thiophen-2-yl)-N-(3,4-dimethoxy-benzyl)-4-carboxy-benzenesulfonamide] | – |
| 101 | – | O=S(=O)(c1ccc(-c2nnn[nH]2)cc1)N(CCC(F)(F)F)c1sc2ccccc2c1Br [Compound 595, N-(3-Bromo-benzo[b]thiophen-2-yl)-N-(3,3,3-trifluoro-propyl)-4-(1H-tetrazol-5-yl)-benzenesulfonamide] | – |
| 101 | 0.0299 | CC(C)(O)c1c(N(Cc2ccc(F)c(Cl)c2)S(=O)(=O)c2ccc(Br)cc2)sc2ccccc12 [Compound 737, N-(3-Chloro-4-fluorobenzyl)-N-(3-(1-hydroxy-1-methyl-ethyl)-benzo[b]thiophen-2-yl)-4-bromo-benzenesulfonamide] | – |
| – | – | O=C(O)c1cccc(S(=O)(=O)N(Cc2ccc(F)c(C(F)(F)F)c2)c2sc3ncccc3c2Cl)c1 [Compound 814, N-(3-Chloro-thieno[2,3-b]pyridin-2-yl)-N-(4-fluoro-3-trifluoromethyl-benzyl)-3-carboxy-benzenesulfonamide] | inhibition at 0.2 µM [3]: 80%; IC50 (HEK293 cells stably expressing canine TRPM8, icilin activation, average of two or more determinations): 0.138 µM |
| – | – | COC(=O)c1cccc(S(=O)(=O)N(Cc2ccc(F)c(C(F)(F)F)c2)c2sc3ncccc3c2Cl)c1 [Compound 816, N-(3-Chloro-thieno[2,3-b]pyridin-2-yl)-N-(4-fluoro-3-trifluoromethyl-benzyl)-3-carbomethoxy-benzenesulfonamide] | inhibition at 0.2 µM [3]: 15% |
| 21 | – | O=S1(=O)C(N(CCC2CC2)S(=O)(=O)c2ccccc2)=C(N2CCNCC2)c2ccccc21 [Compound 647, N-(2-Cyclopropyl-ethyl)-N-(1,1-dioxo-3-piperazin-1-yl-1H-1λ^6-benzo[b]thiophen-2-yl)-benzenesulfonamide] | – |
| 93 | 0.036 | Cc1c(N(CC2CC2)S(=O)(=O)c2ccc(C(=O)O)cc2)sc2ccccc12 [Compound 399, N-(3-Methyl-benzo[b]thiophen-2-yl)-N-(cyclopropylmethyl)-4-carboxy-benzenesulfonamide] | – |
| – | 0.0037 | COc1ccc(CN(c2sc3ccccc3c2Br)S(=O)(=O)c2ccccc2)cc1Br [Compound 165, N-(3-Bromo-benzo[b]thiophen-2-yl)-N-(3-bromo-4-methoxy-benzyl)-benzenesulfonamide] | inhibition at 0.5 µM [4]: 98% |
| 98 | 0.011 | COC(=O)[C@H](C)CN(c1sc2ccccc2c1C)S(=O)(=O)c1ccccc1 [Compound 93, N-(3-Methyl-benzo[b]thiophen-2-yl)-N-[2(R)-methyl-2-carbomethoxy-ethyl]-benzenesulfonamide] | – |
| 102 | – | O=S(=O)(c1ccc(-c2nnn[nH]2)cc1)N(CCCCC(F)(F)F)c1sc2ccccc2c1Br [Compound 579, N-(3-Bromo-benzo[b]thiophen-2-yl)-N-(5,5,5-trifluoro-pentyl)-4-(1H-tetrazol-5-yl)-benzenesulfonamide] | – |
| 91 | 0.0267 | O=S(=O)(c1cccc(-c2nnn[nH]2)c1)N(Cc1ccc(F)c(C(F)(F)F)c1)c1sc2ccccc2c1Cl [Compound 578, N-(3-Chloro-benzo[b]thiophen-2-yl)-N-(4-fluoro-3-trifluoromethyl-benzyl)-3-(1H-tetrazol-5-yl)-benzenesulfonamide] | – |
| 99 | 0.0602 | CNc1ccc(S(=O)(=O)N(CCC2CC2)c2cc3ccccc3s2)cc1 [Compound 688, N-(Benzo[b]thiophen-2-yl)-N-(2-cyclopropyl-ethyl)-4-methylamino-benzenesulfonamide] | – |
| – | 0.0104 | O=S(=O)(c1ccccc1)N(Cc1ccc(Cl)cc1)c1sc2ccccc2c1Cl [Compound 158, N-(3-Chloro-benzo[b]thiophen-2-yl)-N-(4-chloro-benzyl)-benzenesulfonamide] | inhibition at 0.5 µM [4]: 94% |
